{"source": "patent US7598419B2", "about": "“Compounds for modulating cell proliferation” (HSC Research and Development Limited Partnership, priority 2004, dated 2009)", "key": {"[1]": {"test_system": "cells of the myeloid lineage", "details": "in vitro, ex vivo and in vivo; cited from earlier work"}, "normal bone marrow cells [2]": {"test_system": "normal bone marrow cells", "experiment": "In vitro purging of normal bone marrow", "type": "cell-based, human", "details": "50 μM, seven hours exposure; FIG. 21", "protocol": "Heparinized bone marrow cells were layered over Percoll (1.077 gm/ml) (Pharmacia Fine Chemical, Piscataway N.J.) and centrifuged at 400 g at 4° C. for 10 minutes to remove neutrophils and RBCs.\n(§1) For the purging process, the cells were resuspended at 1×10^6/ml in complete medium with or without 50 μM CR4. The cells were incubated with the CR4 for two and a half hours at 37° C., 5% CO2. At the end of this period the cells were thoroughly washed in medium to remove CR4 and then cultured at 2×10^5 cells/ml in IMDM (OCI, Toronto) containing 0.9% (vol/vol) methylcellulose supplemented with 30% FCS (Cansera Rexdale, ON.) or normal human plasma, a cocktail of cytokines containing G-CSF (10 ng/ml, Amgen), IL-3 (40 U/ml, Immunex), MGF (50 ng/ml, Immunex), Erythropoietin (2 u/ml, Epprex) or TPO (10 ng/ml, Amgen) and 5×10^−5M β-2-mercaptoethanol. The culture mixture was plated in 1 ml volumes into 35 mm petri dishes and incubated at 37° C., 5% CO2 in a humidified atmosphere. All cultures were evaluated at 14 days for the number of BFU-E colonies (defined as aggregates of more than 500 hemaglobinized cells or, 3 or more erythroid subcolonies), CFU-C colonies (defined as granulocyte or monocyte-macrophage cells or both) and CFU-GEMM colonies (a mixed population comprising of all elements).\nas §1, with “μM CR11.” for “μM CR4.”, “the tryrphostin” for “the CR4”, “for seven” for “for two and a half”, “remove CR11” for “remove CR4”, “methylcellulose supplementd” for “methylcellulose supplemented”, “500 hemoglobinized” for “500 hemaglobinized”"}, "[3]": {"test_system": "Philadelphia positive ALL, AML and lymphoma", "experiment": "High dose ex vivo / in vitro purging assays (summary)", "type": "cell-based"}, "[4]": {"test_system": "a variety of cancer cells", "experiment": "Growth of cancer cells in culture (summary over cell types)", "type": "cell-based", "details": "for effectiveness against a variety of cell types: Acute Lymphoblastic Leukemia, Philadelphia positive Leukemia, Acute Myeloid Leukemia"}, "[5]": {"test_system": "Philadelphia positive acute lymphoblastic leukemia cells", "experiment": "In vitro purging of Philadelphia positive ALL with CR11", "type": "cell-based, human", "details": "50 μM, 7 hours exposure; FIG. 22", "protocol": "For the purging assay, the cells were resuspended in complete medium with or without CR11 as indicated and incubated at 37° C., 5% CO2 for 0-7 hours. Cells were then washed thoroughly with medium to remove the CR11, resuspended and plated in 1 ml volumes, in the absence of exogenous growth factors, into 35 mm petri dishes (Nunc, Gibco) containing alpha MEM (Gibco) plus 20% FCS (Cansera Rexdale, ON.) in 0.9% (vol/vol) methylcellulose (Fluka, Switzerland). Cultures were set at 37° C., 5% CO2 in a humidified atmosphere. Colonies consisting of more than 20 cells were counted at 9 days or earlier using an inverted microscope."}, "normal bone marrow cells [6]": {"test_system": "normal bone marrow cells", "experiment": "CFU-GEMM assay: normal bone marrow differentiation in culture", "type": "cell-based, human", "protocol": "(§2) The CFU-GEMM assay was performed according to Fauser and Messner (1978, Blood, 52(6) 143-8) and Messner and Fausser (1980, Blut, 41(5) 327-33) with some variations. In brief, heparinized bone marrow cells were layered over Percoll (1.077 gm/ml) (Pharmacia Fine Chemical, Piscataway N.J.) and centrifuged at 400 g at 4° C. for 10 minutes to remove neutrophils and RBCs. The fractionated BM cells at 2×10^5 cells/ml were cultured in IMDM (OCI, Toronto) containing 0.9% (vol/vol) methylcellulose supplementd with 30% FCS (Cansera Rexdale, ON.) or normal human plasma, a cocktail of cytokines containing G-CSF (10 ng/ml, Amgen), IL-3 (40 U/ml, Immunex), MGF (50 ng/ml, Immunex), Erythropoietin (2 u/ml, Epprex) or TPO (10 ng/ml, Amgen), 5×10^−5M β-2-mercaptoethanol and the specified concentration of CR4. The culture mixture was plated in 1 ml volumes into 35 mm petri dishes and incubated at 37° C., 5% CO2 in a humidified atmosphere. All cultures were evaluated at 14 days for the number of BFU-E colonies (defined as aggregates of more than 500 hemoglobinized cells or, 3 or more erythroid subcolonies), CFU-GM colonies (defined as granulocyte or monocyte-macrophage cells or both), CFU-Meg colonies (comprising 4 or more megakaryocytes) and CFU-GEMM colonies (a mixed population comprising of all elements).\nas §2, with “1243-8)” for “143-8)”, “concentrations” for “concentration”, “CR19.” for “CR4.”, “hemaglobinized” for “hemoglobinized”, “subcolonies) and CFU-C” for “subcolonies), CFU-GM”, “both).” for “both), CFU-Meg colonies (comprising 4 or more megakaryocytes) and CFU-GEMM colonies (a mixed population comprising of all elements).”\nas §2, with “1243-8)” for “143-8)”, “variations (British Journal of Haematology, 1992, 80, p 40-48).” for “variations.”, “test compound.” for “CR4.”, “CO2,” for “CO2”, “subcolonies) and CFU-C” for “subcolonies), CFU-GM”, “both).” for “both), CFU-Meg colonies (comprising 4 or more megakaryocytes) and CFU-GEMM colonies (a mixed population comprising of all elements).”"}, "[7]": {"test_system": "Philadelphia positive acute lymphoblastic leukemia (Ph+ ALL) cells", "experiment": "Colony assay of Philadelphia positive ALL cells in methylcellulose culture", "type": "cell-based, human", "protocol": "(§3) Ph+ ALL cells were plated in 1 ml volumes, in the absence of exogenous growth factors, into 35 mm petri dishes (Nunc, Gibco) containing alpha MEM (Gibco) plus 10-20% FCS (Cansera Rexdale, ON.) in 0.9% (vol/vol) methylcellulose (Fluka, Switzerland) with the indicated concentrations of CR4. Cultures were set at 37° C., 5% CO2 in a humidified atmosphere. Colonies consisting of more than 20 cells were counted at 12 days or earlier using an inverted microscope.\nas §3, with “ALL” for “Ph+ ALL”, “20%” for “10-20%”, “and” for “with”, “compound.” for “CR4.”\nas §3, with “ALL” for “Ph+ ALL”, “20%” for “10-20%”, “and” for “with”, “CR24.” for “CR4.”, “9” for “12”\nas §3, with “ALL” for “Ph+ ALL”, “20%” for “10-20%”, “and” for “with”, “CR19.” for “CR4.”, “9” for “12”"}, "[8]": {"details": "low nanomolar doses, long term exposure"}}}
{"smiles": "COc1cc(/C=C/C=C(C#N)C#N)cc(OC)c1O", "note": "[CR7, (E,E)-2-cyano-3-(3,5-dimethoxy-4-hydroxystyryl)acrylonitrile]", "values": [{"measurement": "promotion of myelopoiesis", "setting": "[1]", "value": "capable of promoting myelopoiesis"}]}
{"smiles": "COc1cc(/C=C/C=C(\\C#N)C(=O)NCCc2ccccc2)cc(OC)c1O", "note": "[CR8, (E,E)-2-(Phenylethylaminocarbonyl)-3-(3,5-dimethoxy-4-hydroxystyryl)acrylonitrile]", "values": [{"measurement": "promotion of myelopoiesis", "setting": "[1]", "value": "capable of promoting myelopoiesis"}]}
{"smiles": "COc1cc(/C=C/C=C(\\C#N)C(=O)NCc2ccc(O)c(O)c2)cc(OC)c1O", "note": "[CR11, (E,E)-2-(3,4-Dihydroxybenzylaminocarbonyl)-3-(3,5-dimethoxy-4-hydroxystyryl)acrylonitrile]", "values": [{"measurement": "BFU-E, CFU-GEMM and CFU-C colonies after purging", "setting": "normal bone marrow cells [2]", "value": "all normal"}, {"measurement": "colony formation of normal bone marrow after purging", "setting": "normal bone marrow cells [2]", "value": "did not result in any significant inhibition"}, {"measurement": "effectiveness as ex vivo purging agents", "setting": "[3]", "value": "effective"}, {"measurement": "effectiveness against a variety of cell types", "setting": "[4]", "value": "highly effective"}, {"measurement": "killing of Ph+ ALL cells after purging", "setting": "[5]", "value": "complete killing"}, {"measurement": "promotion of myelopoiesis", "setting": "[1]", "value": "capable of promoting myelopoiesis"}]}
{"smiles": "N#C/C(=C\\C=C\\c1ccccc1)C(=O)NCc1ccc(O)c(O)c1", "note": "[CR19, (E,E)-2-(3,4 Dihydroxybenzylaminocarbonyl)-3-styrylacrylonitrile]", "values": [{"measurement": "CFU-C colony formation", "setting": "normal bone marrow cells [6]; 2.5 μM, 14 days, FIG. 12", "value": "boosted"}, {"measurement": "development of BFU-E colonies", "setting": "normal bone marrow cells [6]; 2.5 μM, 14 days, FIG. 12", "value": "significant inhibition"}, {"measurement": "BFU-E colonies", "setting": "normal bone marrow cells [6]; 5 μM, 14 days, FIG. 12", "value": "virtually absent"}, {"measurement": "CFU-C colony formation", "setting": "normal bone marrow cells [6]; 5 μM, 14 days, FIG. 12", "value": "stimulatory effect disappeared"}, {"measurement": "normal cell growth and differentiation", "setting": "normal bone marrow cells [6]; [8]", "value": "unaffected"}, {"measurement": "effectiveness against a variety of cell types", "setting": "[4]", "value": "highly effective"}, {"measurement": "toxicity to cancer cells", "setting": "[4]; [8]", "value": "highly toxic"}, {"measurement": "promotion of myelopoiesis", "setting": "[1]", "value": "capable of promoting myelopoiesis"}]}
{"smiles": "N#C/C(=C\\C=C\\c1ccc(O)c(O)c1)C(=O)NCc1ccc(O)c(O)c1", "note": "[CR21, (E,E)-2-(3,4 Dihydroxybenzylaminocarbonyl)-3-(3,4-dihydroxystyryl)acrylonitrile]", "values": [{"measurement": "concentrations displaying inhibition of Ph+ ALL cell growth", "setting": "[7]; Example 42, FIG. 8, colonies at 12 days", "value": 5, "unit": "µM"}, {"measurement": "BFU-E colony formation", "setting": "normal bone marrow cells [6]; 20 μM, 14 days, FIG. 13", "value": "caused inhibition"}]}
{"smiles": "COc1cc(/C=C/C=C(\\C#N)C(=O)NCCO)cc(OC)c1O", "note": "[CR24, (E,E)-2-(β-Ethanolaminocarbonyl)-3-(3,5-dimethoxy-4-hydroxystyryl)acrylonitrile]", "values": [{"measurement": "lowest concentration effective against Ph+ ALL cells", "setting": "[7]; colonies at 9 days, FIG. 10", "value": 0.5, "unit": "µM"}, {"measurement": "bone marrow colony formation", "setting": "normal bone marrow cells [6]; 10 or 20 μM, 14 days, FIG. 13", "value": "minimal inhibition"}]}
{"smiles": "COc1cc(/C=C/C=C(\\C#N)C(=O)NCc2ccccc2)ccc1O", "note": "[CR56, (E,E) 2-(benzylaminocarbonyl)-3-(3-methoxy-4-hydroxystyryl)acrylonitrile]", "values": [{"measurement": "promotion of myelopoiesis", "setting": "[1]", "value": "capable of promoting myelopoiesis"}]}
